Key:
human type PPARα = biological target: T1, human type PPARα (Homo sapiens, UniProt Q07869); assay: Test of transcriptional activation on peroxisome proliferator-activated receptor α; type: cell-based; details: CHO cells cotransfected with yeast DNA-binding domain/human PPARα ligand-binding domain fusion receptor plasmid, reporter plasmid and Renilla luciferase internal standard; luciferase measured after 24 hours; read-out: Transcription-activating function EC50
T1 construct: expressed in transfected cells; host or cells: CHO cells
T1 sequence (Q07869 239-466 limits assumed): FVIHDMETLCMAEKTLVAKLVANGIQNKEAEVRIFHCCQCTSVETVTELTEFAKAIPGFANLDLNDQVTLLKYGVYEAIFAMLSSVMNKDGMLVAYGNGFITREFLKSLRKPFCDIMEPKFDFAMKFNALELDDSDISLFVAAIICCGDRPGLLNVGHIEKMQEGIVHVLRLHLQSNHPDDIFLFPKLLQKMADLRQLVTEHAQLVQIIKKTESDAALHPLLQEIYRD
Excerpt: Test of Transcriptional Activation on Peroxisome Proliferator-Activated Receptor α
To CHO cells cultured in a Dulbecco-modified Eagle's medium containing 10% delipid fetal calf serum (FCS/DMEM), receptor plasmid that expresses fused protein of DNA-binding domain being transcription factor of yeast with ligand-binding domain of human type PPARα (Biochemistry, 1993, 32, 5598), its reporter plasmid (STRATAGENE Corp.) and luciferase plasmid of Renilla (Promega Corp.) as internal standard were cotransfected with lipofectamine in the serum-free state. Thereafter, testing compound was added in the 10% SFCS/DMEM and both luciferase activities were measured after 24 hours, which were corrected with internal standard.

Row | EC50 (human type PPARα) | melting point | SMILES
1 | – | 121 to 123 °C | CCC(Cc1ccc(OC)c(CC(=O)Nc2ccc(C(F)(F)F)cc2)c1)C(=O)O (single isomer, unassigned; (-)) [Example 121 (−), (−)-2-ethyl-3-[4-methoxy-3-[[N-[4-(trifluoromethyl)phenyl]carbamoyl]methyl]-phenyl]propanoic acid]
2 | 50 nM | – | CCC(Cc1ccc(OC)c(NC(=O)Cc2ccc(OCc3ccccc3)cc2)c1)C(=O)O (stereo not shown) [Example 46]
3 | – | 64 to 66 °C | CCC(Cc1ccc(OC)c(OCCc2ccc(C(F)(F)F)cc2)c1)C(=O)O (stereo not shown) [Example 120, 2-Ethyl-3-[4-methoxy-3-[2-[4-(trifluoromethyl)phenyl]ethoxy]phenyl]propanoic acid]
4 | 130 nM | 177 °C | COc1ccc(CCC(=O)O)cc1NC(=O)Cc1ccc(-c2ccccc2)cc1 [Example 44]

Continued, compound first:

Row | SMILES | EC50 (human type PPARα) | melting point
5 | CCC(Cc1ccc(OC)c(CC(=O)Nc2ccc(C(F)(F)F)cc2)c1)C(=O)O (stereo not shown) [Example 88, 2-Ethyl-3-[4-methoxy-3-[[N-[4-(trifluoromethyl)phenyl]carbamoyl]methyl]phenyl]propanoic acid] | 15 nM | 136 to 137 °C
6 | COc1ccc(CC(OC)C(=O)O)cc1NC(=O)Cc1ccc(C(F)(F)F)cc1 (stereo not shown) [Example 39, 2-Methoxy-3-[4-methoxy-3-[2-[4-(trifluoromethyl)phenyl]acetylamino]phenyl]propanoic acid] | – | 124 to 125 °C
7 | CCCCC/C=C\C/C=C\C=C\[C@@H](O)C/C=C\CCCC(=O)O [(8S) HETE, reference compound] | 1300 nM | –
8 | COc1ccc(CC(OC)C(=O)O)cc1NC(=O)Cc1ccc(Oc2ccccc2)cc1 (stereo not shown) [Example 70] | 160 nM | –

— patent US7049342B2, “Substituted phenylpropionic acid derivatives” (Kyorin Pharmaceutical Co., Ltd., priority 2000, dated 2006)
